Source: the supplement of paper PMC10307832

What was measured:
Assay in all cases: relative viability (nuclei count vs DMSO), 5 days (fraction); higher = more cells survive
[1] = compound: CC(C)=CC[C@@H](O)C1=CC(=O)c2c(O)ccc(O)c2C1=O [Shikonin] + CC(=O)c1c(C)c2cnc(Nc3ccc(N4CCNCC4)cn3)nc2n(C2CCCC2)c1=O [Palbociclib] (partner 0.5 µM)
Procedure, shortened: (§1)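 Lung cancer cell lines in 1536-well plates were dosed by pin tool the day after seeding, either with one drug alone or with a fixed anchor-drug dose plus five library-drug doses (not always all listed) in √10 steps. After 5 days, cells were fixed and their nuclei stained in one step (final 0.05% Triton X-100, 1% formaldehyde, 1 ug/ml Hoechst), then counted on 4× images. Relative viability is the nuclei count in treated wells divided by that in vehicle wells. Values are medians of duplicate plates.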

[2] = compound: CC(C)=CC[C@@H](O)C1=CC(=O)c2c(O)ccc(O)c2C1=O [Shikonin] + CCNC(=O)c1noc(-c2cc(C(C)C)c(O)cc2O)c1-c1ccc(CN2CCOCC2)cc1 [Luminespib] (partner 0.01 µM)
Procedure, shortened: as §1

[3] = compound: CC(C)=CC[C@@H](O)C1=CC(=O)c2c(O)ccc(O)c2C1=O [Shikonin] + NC(=O)Nc1cc(-c2cccc(F)c2)sc1C(=O)N[C@H]1CCCNC1 [AZD7762] (partner 0.2 µM)
Procedure, shortened: as §1

[4] = compound: CC(C)N(CCCNC(=O)Nc1ccc(C(C)(C)C)cc1)C[C@H]1O[C@@H](n2ccc3c(N)ncnc32)[C@H](O)[C@@H]1O + CC(=O)c1c(C)c2cnc(Nc3ccc(N4CCNCC4)cn3)nc2n(C2CCCC2)c1=O [Palbociclib] (partner 0.5 µM)
Procedure, shortened: as §1

Row | Cell Line | relative viability ([1]; first compound 0.01 µM) | relative viability ([1]; first compound 0.1 µM) | relative viability ([1]; first compound 0.3162 µM) | relative viability ([1]; first compound 1 µM) | relative viability ([2]; first compound 0.01 µM) | relative viability ([2]; first compound 0.1 µM) | relative viability ([2]; first compound 0.3162 µM) | relative viability ([2]; first compound 1 µM) | relative viability ([3]; first compound 0.01 µM) | relative viability ([3]; first compound 0.1 µM) | relative viability ([3]; first compound 0.3162 µM) | relative viability ([3]; first compound 1 µM) | relative viability ([4]; first compound 0.08 µM) | relative viability ([4]; first compound 0.253 µM) | relative viability ([4]; first compound 0.8 µM) | relative viability ([4]; first compound 2.53 µM) | relative viability ([4]; first compound 8 µM)
1 | NCI-H1666 | 0.648 | 0.664 | 0.617 | 0.599 | 0.986 | 1.08 | 0.932 | 1.04 | 0.776 | 0.9 | 1 | 0.887 | 0.64 | 0.634 | 0.659 | 0.65 | 0.656
2 | LC-2-ad | 0.533 | 0.483 | 0.441 | 0.511 | 0.934 | 1.11 | 1.08 | 1.07 | 0.756 | 0.919 | 0.863 | 0.949 | 0.496 | 0.463 | 0.495 | 0.51 | 0.484
3 | COR-L 105 | 0.447 | 0.388 | 0.483 | 0.402 | 0.787 | 0.758 | 0.83 | 0.74 |  |  |  |  | 0.402 | 0.397 | 0.414 | 0.434 | 0.378
4 | NCI-H2009 | 0.248 | 0.203 | 0.213 | 0.145 | 1.1 | 1.16 | 1 | 0.876 |  |  |  |  | 0.148 | 0.198 | 0.184 | 0.174 | 0.255
5 | SW 1573 | 0.513 | 0.344 | 0.323 | 0.093 | 0.494 | 0.201 | 0.232 | 0.0929 |  |  |  |  | 0.377 | 0.431 | 0.419 | 0.401 | 0.336
6 | HCC-366 | 0.415 | 0.4 | 0.316 | 0.388 |  |  |  |  | 0.281 | 0.25 | 0.308 | 0.269 | 0.34 | 0.372 | 0.41 | 0.375 | 0.396
7 | NCI-H1648 | 0.282 |  | 0.273 | 0.238 |  |  |  |  | 0.829 |  | 0.825 | 0.457 | 0.268 | 0.315 | 0.335 | 0.287 | 0.323
8 | NCI-H661 | 0.405 | 0.395 | 0.426 | 0.4 | 0.951 | 1.06 | 0.932 | 0.858 |  |  |  |  | 0.395 | 0.437 | 0.45 | 0.423 | 0.423
9 | SK-MES-1 | 0.317 | 0.3 | 0.295 | 0.288 | 0.969 | 0.677 | 0.833 | 0.698 |  |  |  |  | 0.317 | 0.357 | 0.309 | 0.375 | 0.325
10 | NCI-H596 |  |  |  |  | 1.14 | 1.22 | 1.16 | 1.13 | 1.06 | 1.14 | 1.09 | 1.09 |  |  |  |  | 
11 | NCI-H2228 | 0.812 | 0.939 | 0.754 | 0.729 | 0.153 | 0.177 | 0.146 | 0.163 |  |  |  |  | 0.789 | 0.56 | 0.643 | 0.77 | 0.701
12 | NCI-H2023 | 0.437 | 0.363 | 0.411 | 0.401 | 0.969 | 0.851 | 0.982 | 0.59 |  |  |  |  | 0.458 | 0.312 | 0.634 | 0.338 | 0.329
